In patent publication EP4603105A1, “PHARMACEUTICAL COMPOSITION CONTAINING CYCLIC COMPOUND HAVING SELECTIVE KRAS INHIBITORY EFFECT AGAINST HRAS AND NRAS” (CHUGAI SEIYAKU KABUSHIKI KAISHA, priority 2022, dated 2024):
Where a SMILES comes first, the peptide text is derived from it. Bridges are numbered along the chain shown (N, C = ends). [ ]: non-standard residue; d: D form. The star is where a group is joined. hPhe(3-Cl-4-CF3) = N[C@@H](CCc1ccc(C(F)(F)F)c(Cl)c1)C(=O)O; NPrPhe(4-CF3) = CCCN[C@@H](Cc1ccc(C(F)(F)F)cc1)C(=O)O; NMeGly(cPent) = CN[C@H](C(=O)O)C1CCCC1; Pro(4,4-F2) = O=C(O)[C@@H]1CC(F)(F)CN1; NMeD = CN[C@@H](CC(=O)O)C(=O)O; NMeL = CN[C@@H](CC(C)C)C(=O)O; Morpholide = C1CN(*)CCO1; NMeA = CN[C@@H](C)C(=O)O; Ac5c = NC1(C(=O)O)CCCC1; Aze = O=C(O)[C@@H]1CCN1; Ac4c = NC1(C(=O)O)CCC1; Sar = CNCC(=O)O

Key:
HRAS wild-type protein = HRAS wild-type protein (Homo sapiens, UniProt P01112); test: Binding to HRAS by surface plasmon resonance (SPR), KD and KD ratio to KRAS
How it was run: (§1)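 Each cycle, GDP-bound biotin-Avi RAS was captured (~100–300 RU), compound concentrations were injected low to high for 75 s each at 100 µL/min, then the chip was regenerated. Buffer: HBS pH 7.4, 10 mM MgCl2, 10 µM GDP, 1 mM DTT, 4% DMSO; 30°C. KD from a 1:1 binding model.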

[1] = target: GDP-bound NRAS wild-type protein (Homo sapiens, UniProt P01111); test: Binding to NRAS by surface plasmon resonance (SPR), KD and KD ratio to KRAS
How it was run: as §1

[2] = tested on: human lung cancer strain NCI-H441; format: cell-based
How it was run: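 Signal came from […] measured per well once the reagent was added. Beforehand, cells were cultured at 37°C and 5% carbon dioxide on a compound series serially diluted in dimethyl sulfoxide.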

[3] = ratio of the KD value with respect to HRAS wild-type protein to the KD value with respect to KRAS
[4] = ratio of the KD value with respect to GDP-bound NRAS wild-type protein to the KD value with respect to KRAS
[5] = ratio of KD for HRAS wild-type protein to KD for KRAS
[6] = ratio of KD for GDP-bound NRAS wild-type protein to KD for KRAS

HRAS wild-type protein, sequence (P01112 whole entry): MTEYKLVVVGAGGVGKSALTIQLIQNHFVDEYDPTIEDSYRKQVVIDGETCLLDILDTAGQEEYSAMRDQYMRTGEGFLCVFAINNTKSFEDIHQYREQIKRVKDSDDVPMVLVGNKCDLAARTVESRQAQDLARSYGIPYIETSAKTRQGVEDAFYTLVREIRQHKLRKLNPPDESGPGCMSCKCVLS
GDP-bound NRAS wild-type protein, sequence (P01111 whole entry): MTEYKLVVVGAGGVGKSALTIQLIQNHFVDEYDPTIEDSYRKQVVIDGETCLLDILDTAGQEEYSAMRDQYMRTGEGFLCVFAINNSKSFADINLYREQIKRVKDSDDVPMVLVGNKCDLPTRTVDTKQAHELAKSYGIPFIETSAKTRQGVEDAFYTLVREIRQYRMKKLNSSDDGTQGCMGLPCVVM

IC50 [2] [nM]	Structure (SMILES)	HRAS /KRAS (HRAS wild-type protein; [3])	NRAS /KRAS [1, 4]	HRAS /KRAS (HRAS wild-type protein; [5])	NRAS /KRAS [1, 6]
33.8	CCO[C@@H]1C[C@H]2C(=O)NC3(CCC3)C(=O)N(C)[C@@H](C3CCCC3)C(=O)N(C)[C@H](C(=O)N3CCOCC3)CC(=O)N(C)[C@@H](CC(C)C)C(=O)N[C@@H]([C@@H](C)CC)C(=O)N(C)CC(=O)N(C)[C@H]3CCCCCN(C3=O)[C@@H](Cc3ccc(C(F)(F)F)cc3)C(=O)N(C)CC(=O)N[C@@H](CCc3cc(F)c(C(F)(F)F)c(F)c3)C(=O)N2C1 [PP0467]	B (a compound having 3 or more and less than 10 is denoted as B)	B (a compound having 3 or more and less than 10 is denoted as B)	–	–
2.7	CCCN1C(=O)CN(C)C(=O)CN(C)C(=O)[C@H]([C@@H](C)CC)NC(=O)[C@H](CC(C)C)N(C)C(=O)C[C@@H](C(=O)N2CCOCC2)N(C)C(=O)[C@H](C2CCCC2)N(C)C(=O)C2(CCCC2)NC(=O)[C@@H]2CC(F)(F)CN2C(=O)[C@H](CCc2ccc(C(F)(F)F)c(Cl)c2)NC(=O)CN(C)C(=O)[C@@H]1Cc1ccc(C(F)(F)F)cc1 [PP0195] ([NMeL]I[Sar][Sar][NPrPhe(4-CF3)][Sar][hPhe(3-Cl-4-CF3)][Pro(4,4-F2)][Ac5c][NMeGly(cPent)][NMeD]-Morpholide; lactam N-11)	–	–	C (A compound having a KD ratio of 0.1 or more and less than 3 is denoted as C)	B (a compound having 3 or more and less than 10 is denoted as B)
4.1	CCO[C@@H]1C[C@H]2C(=O)NC3(CC(C)(C)C3)C(=O)N(C)[C@@H](C3CCCC3)C(=O)N(C)[C@H](C(=O)N(C)CC)CC(=O)N(C)[C@H]3CCC/C=C/c4ccc(cc4)C[C@@H](C(=O)N(C)CC(=O)N[C@@H](CCc4ccc(Cl)c(Cl)c4)C(=O)N2C1)N1CC/C=C\C[C@@H](C1=O)N(C)C(=O)CN(C)C(=O)[C@H]([C@@H](C)CC)NC3=O [PP2577]	–	–	A (a compound having 10 or more and less than 20 is denoted as A)	A (a compound having 10 or more and less than 20 is denoted as A)
5	CCC[C@H]1C(=O)N[C@@H]([C@@H](C)CC)C(=O)N(C)CC(=O)N(C)[C@H]2C/C=C\CCN(C2=O)[C@@H](Cc2ccc(C(F)(F)F)cc2)C(=O)N(C)CC(=O)N[C@@H](CCc2ccc(C(F)(F)F)c(Cl)c2)C(=O)N2CC3(CC3)C[C@H]2C(=O)NC2(CC(C)(C)C2)C(=O)N(C)[C@@H](CC(C)(C)C)C(=O)N(C)[C@H](C(=O)N(C)C)CC(=O)N1C [PP2979]	–	–	B (a compound having 3 or more and less than 10 is denoted as B)	A (a compound having 10 or more and less than 20 is denoted as A)
51.4	CCC[C@H]1C(=O)N[C@@H](C2CCOCC2)C(=O)N(C)CC(=O)N(C)[C@H]2C/C=C\CCN(C2=O)[C@@H](Cc2ccc(C(F)(F)F)cc2)C(=O)N(C)CC(=O)N[C@@H](CCc2ccc(C(F)(F)F)c(Cl)c2)C(=O)N2C[C@H](OCC)C[C@H]2C(=O)NC2(CC(C)(C)C2)C(=O)N(C)[C@@H](CC(C)(C)C)C(=O)N(C)[C@H](C(=O)N(C)C)CC(=O)N1C [PP3022]	–	–	A (a compound having 10 or more and less than 20 is denoted as A)	AA (a compound having 20 or more is denoted as AA)
3.5	CCC[C@H]1C(=O)N[C@@H]([C@@H](C)CC)C(=O)N(C)CC(=O)N(C)[C@H]2C/C=C\CCN(C2=O)[C@@H](Cc2ccc(C)cc2)C(=O)N(C)CC(=O)N[C@@H](CCc2ccc3sc(F)c(C)c3c2)C(=O)N2C[C@H](OCC)C[C@H]2C(=O)NC2(CC(C)(C)C2)C(=O)N(C)[C@@H](C2CCCC2)C(=O)N(C)[C@H](C(=O)N(C)C)CC(=O)N1C [PP2949]	–	–	A (a compound having 10 or more and less than 20 is denoted as A)	A (a compound having 10 or more and less than 20 is denoted as A)
13.1	CC[C@H](C)[C@@H]1NC(=O)[C@H](CC)N(C)C(=O)C[C@@H](C(=O)N(C)C)N(C)C(=O)[C@H](C2CCCC2)N(C)C(=O)C2(CC(C)(C)C2)NC(=O)[C@H](CC)N(C)C(=O)[C@H](CCc2cc(F)c(C(F)(F)F)c(F)c2)NC(=O)CN(C)C(=O)[C@H](Cc2ccc(C(F)(F)F)cc2)N2CC/C=C\C[C@@H](C2=O)N(C)C(=O)CN(C)C1=O [PP1935]	A (a compound having 10 or more and less than 20 is denoted as A)	A (a compound having 10 or more and less than 20 is denoted as A)	–	–
8.3	CC[C@H](C)[C@@H]1NC(=O)[C@H](CC(C)C)N(C)C(=O)C[C@@H](C(=O)N2CCOCC2)N(C)C(=O)[C@H](C2CCCCC2)N(C)C(=O)C2(CCCC2)NC(=O)[C@@H]2CCCN2C(=O)[C@H](CCc2cc(F)c(C(F)(F)F)c(F)c2)NC(=O)CN(C)C(=O)[C@H](Cc2ccc(C(F)(F)F)cc2)N2CCCC[C@@H](C2=O)N(C)C(=O)CN(C)C1=O [PP0567]	B (a compound having 3 or more and less than 10 is denoted as B)	B (a compound having 3 or more and less than 10 is denoted as B)	–	–
4.2	CCCN1C(=O)CN(C)C(=O)CNC(=O)[C@H]([C@@H](C)CC)NC(=O)[C@H](CC(C)C)N(C)C(=O)C[C@@H](C(=O)N(C)C)N(C)C(=O)[C@H](C2CCCC2)N(C)C(=O)C2(CCCC2)NC(=O)[C@@H]2CC(F)(F)CN2C(=O)[C@H](CCc2ccc(C(F)(F)F)c(Cl)c2)NC(=O)CN(C)C(=O)[C@@H]1Cc1ccc(C(F)(F)F)cc1 [PP0419] ([NMeL]IG[Sar][NPrPhe(4-CF3)][Sar][hPhe(3-Cl-4-CF3)][Pro(4,4-F2)][Ac5c][NMeGly(cPent)][NMeD]-NMe2; lactam N-11)	C (A compound having a KD ratio of 0.1 or more and less than 3 is denoted as C)	B (a compound having 3 or more and less than 10 is denoted as B)	–	–
11.8	C#CC[C@H]1C(=O)N[C@@H]([C@@H](C)CC)C(=O)N(C)CC(=O)N(C)[C@H]2C/C=C\CCN(C2=O)[C@@H](Cc2ccc(C(F)(F)F)cc2)C(=O)N(C)CC(=O)N[C@@H](CCc2cc(F)c(C(F)(F)F)c(F)c2)C(=O)N2C[C@@H](C)C[C@H]2C(=O)NC2(CC(C)(C)C2)C(=O)N(C)[C@@H](C2CCCC2)C(=O)N(C)[C@H](C(=O)N(C)CC)CC(=O)N1C [PP2075]	A (a compound having 10 or more and less than 20 is denoted as A)	A (a compound having 10 or more and less than 20 is denoted as A)	–	–
5.7	CCCN1C(=O)[C@@H]2CCN2C(=O)[C@H](C)N(C)C(=O)[C@H]([C@@H](C)CC)NC(=O)[C@H](CC(C)C)N(C)C(=O)C[C@@H](C(=O)N2CCOCC2)N(C)C(=O)[C@H](C2CCCC2)N(C)C(=O)C2(CCC2)NC(=O)[C@@H]2CCCN2C(=O)[C@H](CCc2ccc(C(F)(F)F)c(Cl)c2)NC(=O)CN(C)C(=O)[C@@H]1Cc1ccc(C(F)(F)F)cc1 [PP0198] ([NMeL]I[NMeA][Aze][NPrPhe(4-CF3)][Sar][hPhe(3-Cl-4-CF3)]P[Ac4c][NMeGly(cPent)][NMeD]-Morpholide; lactam N-11)	–	–	B (a compound having 3 or more and less than 10 is denoted as B)	C (A compound having a KD ratio of 0.1 or more and less than 3 is denoted as C)
9.8	CC[C@H](C)[C@@H]1NC(=O)[C@H](CC(C)C)N(C)C(=O)C[C@@H](C(=O)N(C)C)N(C)C(=O)[C@H](C2CCCC2)N(C)C(=O)C2(CCCC2)NC(=O)[C@@H]2C[C@H](C)CN2C(=O)[C@H](CCc2cc(F)c(C(F)(F)F)c(F)c2)NC(=O)CN(C)C(=O)[C@H](Cc2ccc(C(F)(F)F)cc2)N2CC/C=C\C[C@@H](C2=O)N(C)C(=O)CN(C)C1=O [PP2268]	A (a compound having 10 or more and less than 20 is denoted as A)	A (a compound having 10 or more and less than 20 is denoted as A)	–	–
